pIC50: −log10 of the molar value. Counter-ions that a name gives are not always drawn.
Legend:
HCN4 = HCN4 (Homo sapiens (Human), UniProt Q9Y3Q4); experiment: HCN4 current assay using PatchXpress 7000A; type: cell-based; conditions: PatchXpress protocol; read-out: PX HCN4 IC50
Method: (§1) Example 126A, Using PatchXpress 7000A
(§2) Solutions for recording HCN currents were:
(§3) The peak inward current measured at the end of the pulse to −110 mV (HCN1 and HCN2) or −130 mV (HCN4) was measured and any leak current subtracted to calculate the HCN current. The HCN current amplitude was measured after each control or compound addition and normalized to the control amplitude (Control A).
(§4) All experiments were performed at room temperature (approximately 22° C.).
(§5) Each test compound concentration was applied to the cell for seven (7) minutes, at which point the next cumulative concentration was applied.

HCN2 = HCN2 (Homo sapiens (Human), UniProt Q9UL51); experiment: HCN2 current assay using PatchXpress 7000A; type: cell-based; conditions: PatchXpress protocol; read-out: PX HCN2 IC50
Chain of HCN2 (Q9UL51 whole entry): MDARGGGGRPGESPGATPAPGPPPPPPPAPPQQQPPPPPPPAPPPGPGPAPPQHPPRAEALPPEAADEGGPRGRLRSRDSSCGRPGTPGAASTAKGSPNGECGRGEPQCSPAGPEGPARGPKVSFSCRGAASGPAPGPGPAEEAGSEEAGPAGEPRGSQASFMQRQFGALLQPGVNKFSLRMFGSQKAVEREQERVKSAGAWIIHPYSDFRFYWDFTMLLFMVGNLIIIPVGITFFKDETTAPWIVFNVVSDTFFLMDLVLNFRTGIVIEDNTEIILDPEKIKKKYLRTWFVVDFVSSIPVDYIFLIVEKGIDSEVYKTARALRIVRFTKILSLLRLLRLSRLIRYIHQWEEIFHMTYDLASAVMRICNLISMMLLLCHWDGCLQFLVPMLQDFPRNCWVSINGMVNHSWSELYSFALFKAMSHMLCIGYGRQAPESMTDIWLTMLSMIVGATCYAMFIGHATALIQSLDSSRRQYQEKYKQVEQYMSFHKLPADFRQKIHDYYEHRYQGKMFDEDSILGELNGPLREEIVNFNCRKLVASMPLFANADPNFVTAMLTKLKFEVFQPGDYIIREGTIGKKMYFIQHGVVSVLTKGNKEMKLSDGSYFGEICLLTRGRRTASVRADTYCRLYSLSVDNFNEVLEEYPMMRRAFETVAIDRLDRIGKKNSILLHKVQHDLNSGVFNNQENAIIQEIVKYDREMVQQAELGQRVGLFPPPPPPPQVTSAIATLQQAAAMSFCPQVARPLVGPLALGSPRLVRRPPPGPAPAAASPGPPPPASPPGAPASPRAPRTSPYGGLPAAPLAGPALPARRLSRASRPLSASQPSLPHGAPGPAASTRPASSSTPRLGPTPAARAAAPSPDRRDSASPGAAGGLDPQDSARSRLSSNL
Method: as §1, §2
The membrane voltage was then stepped back to −30 mV for a further 8 seconds.
as §3, §4, §5

Chain of HCN4 (Q9Y3Q4 whole entry, species assumed): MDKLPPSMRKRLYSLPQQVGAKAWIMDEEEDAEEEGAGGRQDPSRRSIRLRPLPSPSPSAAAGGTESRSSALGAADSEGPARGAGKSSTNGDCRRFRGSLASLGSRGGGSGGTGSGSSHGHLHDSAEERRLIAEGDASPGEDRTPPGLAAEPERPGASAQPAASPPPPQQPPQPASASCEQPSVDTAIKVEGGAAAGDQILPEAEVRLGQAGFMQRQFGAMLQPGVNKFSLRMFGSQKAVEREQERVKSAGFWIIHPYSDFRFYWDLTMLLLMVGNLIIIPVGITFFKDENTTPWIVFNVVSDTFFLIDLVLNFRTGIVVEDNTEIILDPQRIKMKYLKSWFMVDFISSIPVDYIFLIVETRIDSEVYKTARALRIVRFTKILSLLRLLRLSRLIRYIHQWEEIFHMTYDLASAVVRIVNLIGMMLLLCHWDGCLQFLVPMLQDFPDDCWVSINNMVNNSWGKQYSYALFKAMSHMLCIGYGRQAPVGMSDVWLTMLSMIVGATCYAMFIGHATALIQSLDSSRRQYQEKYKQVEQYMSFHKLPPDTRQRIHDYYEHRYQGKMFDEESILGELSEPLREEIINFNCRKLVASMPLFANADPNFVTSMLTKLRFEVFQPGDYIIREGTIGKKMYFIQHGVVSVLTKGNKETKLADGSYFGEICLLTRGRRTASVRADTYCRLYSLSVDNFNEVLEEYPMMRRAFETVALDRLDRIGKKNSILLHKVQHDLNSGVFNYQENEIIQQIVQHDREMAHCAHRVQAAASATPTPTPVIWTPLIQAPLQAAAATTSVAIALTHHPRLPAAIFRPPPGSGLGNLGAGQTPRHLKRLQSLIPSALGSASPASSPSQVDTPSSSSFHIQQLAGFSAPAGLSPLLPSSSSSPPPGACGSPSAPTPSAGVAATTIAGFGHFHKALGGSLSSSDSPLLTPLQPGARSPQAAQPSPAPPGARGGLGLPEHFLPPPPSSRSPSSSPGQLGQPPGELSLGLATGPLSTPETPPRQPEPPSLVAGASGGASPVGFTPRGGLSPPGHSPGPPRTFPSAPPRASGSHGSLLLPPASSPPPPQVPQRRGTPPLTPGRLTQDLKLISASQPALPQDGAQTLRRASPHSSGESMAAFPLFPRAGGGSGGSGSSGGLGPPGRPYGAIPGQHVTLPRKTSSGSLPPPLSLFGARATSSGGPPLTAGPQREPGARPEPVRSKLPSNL

| SMILES | pIC50 (HCN4) | pIC50 (HCN2) |
| --- | --- | --- |
| N[C@@H](Cc1ccc(Br)cn1)c1ccccc1-c1noc2ccccc12 [Example 88, (S)-1-[2-(Benzo[d]isoxazol-3-yl)phenyl]-2-(5-bromopyridine-2-yl)ethan-1-amine hydrochloride] | < 4.52 | 5.57 |
| Cc1cccc(C[C@H](N)c2ccccc2-c2noc3cc(C#N)ccc23)n1 [Example 96, (S)-1-[2-(6-Cyanobenzo[d]isoxazol-3-yl)phenyl]-2-(6-methylpyridine-2-yl)ethan-1-amine] | < 4.52 | 5.54 |
| N[C@@H](Cc1cccc(N2CCOCC2)n1)c1ccccc1-c1noc2ccccc12 [Example 54, (S)-1-[2-(Benzo[d]isoxazol-3-yl)phenyl]-2-(6-morpholinopyridine-2-yl)ethane-1-amine hydrochloride] | 5.68 | 6.00 |
| CN(CCO)c1cccc(C[C@H](N)c2ccccc2-c2noc3ccccc23)n1 [Example 55, (S)-2-[(6-{(S)-2-Amino-2-[2-(benzo[d]isoxazol-3-yl)phenyl]ethyl}pyridine-2-yl)(methyl)amino]ethan-1-ol hydrochloride] | 5.70 | 6.10 |
| N[C@@H](Cc1ccccn1)c1cccc(Br)c1-c1noc2ccccc12 [Example 86, (S)-1-[2-(Benzo[d]isoxazol-3-yl)-3-bromophenyl]-2-(pyridine-2-yl)ethan-1-amine hydrochloride] | – | 4.76 |
| Cc1noc(C)c1-c1cccc(C[C@H](N)c2ccccc2-c2noc3ccccc23)n1 [Example 94, (S)-1-[2-(Benzo[d]isoxazol-3-yl)phenyl]-2-[6-(3,5-dimethylisoxazol-4-yl)pyridine-2-yl)-ethan-1-amine hydrochloride] | 5.33 | 5.92 |
| CC[C@H](c1ccccn1)[C@H](N)c1ccccc1-c1noc2ccccc12 [Example 45, (1S,2S)-1-[2-(Benzo[d]isoxazol-3-yl)phenyl]-2-(pyridin-2-yl)butan-1-amine hydrochloride] | – | 4.66 |
| N#Cc1ccc(-c2noc3ccccc23)c([C@@H](N)Cc2ccccn2)c1 [Example 37, (S)-1-[2-(Benzo[d]isoxazol-3-yl)-5-cyanophenyl]-2-(pyridine-2-yl)ethan-1-amine hydrochloride] | – | 4.85 |
| N[C@@H](Cc1ccccn1)c1ccccc1-c1noc2cc(C3CC3)ccc12 [Example 34, (S)-1-[2-(6-Cyclopropylbenzo[d]isoxazol-3-yl)phenyl]-2-(pyridine-2-yl)ethan-1-amine] | – | 4.78 |
| N[C@@H](Cc1cccc(C(O)CO)n1)c1ccccc1-c1noc2ccccc12 (stereo partly drawn) [Example 41, 1-(6-{(S)-2-Amino-2-[2-(benzo[d]isoxazol-3-yl)phenyl]ethyl}pyridine-2-yl)ethan-1,2-diol hydrochloride] | < 4.52 | 4.85 |
| COc1ccc(-c2noc3ccccc23)c([C@@H](N)Cc2ccccn2)c1 [Example 82, (S)-1-[2-(Benzo[d]isoxazol-3-yl)-5-methoxyphenyl]-2-(pyridine-2-yl)ethan-1-amine hydrochloride] | – | 4.58 |
| CC(C)n1nc(-c2ccccc2[C@@H](N)Cc2cccc(Br)n2)c2ccccc21 [Example 64, (S)-2-(6-Bromopyridine-2-yl)-1-[2-(1-isopropyl-1H-indazole-3-yl)phenyl]ethan-1-amine hydrochloride] | 5.19 | 5.89 |
| N#Cc1cccc(C[C@H](N)c2ccccc2-c2noc3cc(Br)ccc23)n1 [Example 120, (S)-{2-Amino-[2-(6-bromobenzo[d]isoxazol-3-yl)phenyl]ethyl}-6-cyanopyridine] | – | 5.80 |
| Cc1ccc(C(=O)N(C)C)nc1C[C@H](N)c1ccccc1-c1noc2ccccc12 [Example 8, (S)-6-{2-Amino-2-[2-(benzo[d]isoxazol-3-yl)phenyl]ethyl}-N,N,5-trimethylpyridine-2-carboxamide] | – | 5.60 |
| N[C@@H](Cc1ncccc1C1CC1)c1ccccc1-c1noc2ccccc12 [Example 79, (S)-1-[2-(Benzo[d]isoxazol-3-yl)phenyl]-2-(3-cyclopropylpyridin-2-yl)ethan-1-amine formate] | – | 5.31 |
| N[C@@H](Cc1ccccn1)c1ccccc1-c1noc2cc(C#CCO)ccc12 [Example 32, (S)-1-[2-(6-[3-Hydroxyprop-1-yn-1-yl]benzo[d]isoxazol-3-yl)phenyl]-2-(pyridine-2-yl)ethan-1-amine hydrochloride] | – | 5.07 |
| CC(c1ccccn1)C(N)c1ccccc1-c1noc2ccccc12 (single isomer, unassigned; diastereomer 1) [Example 1, 1-[2-(Benzo[d]isoxazol-3-yl)phenyl]-2-(pyridin-2-yl)propan-1-amine hydrochloride (diastereomer 1)] | – | 5.13 |
| N[C@@H](Cc1ccccn1)c1ccc(Br)cc1-c1noc2ccccc12 [Example 85, (S)-1-[2-(Benzo[d]isoxazol-3-yl)-4-bromophenyl]-2-(pyridine-2-yl)ethan-1-amine] | – | 4.89 |
| COc1cccc(C[C@H](N)c2ccccc2-c2noc3ccccc23)n1 [Example 115, (S)-1-[2-(Benzo[d]isoxazol-3-yl)phenyl]-2-(6-methoxypyridine-2-yl)ethan-1-amine hydrochloride] | – | 6.16 |
| N[C@@H](Cc1ccccn1)c1ccccc1-c1noc2ccc(Br)cc12 [Example 113, (S)-1-[2-(5-Bromobenzo[d]isoxazol-3-yl)phenyl]-2-(pyridine-2-yl)ethan-1-amine hydrochloride] | – | 4.64 |
| N[C@@H](Cc1cccc(N2CC[C@H](O)C2)n1)c1ccccc1-c1noc2ccccc12 [Example 53, (S)-1-(6-{(S)-2-Amino-2-[2-(benzo[d]isoxazol-3-yl)phenyl]ethyl}pyridine-2-yl)pyrrolidin-3-ol hydrochloride] | – | 5.21 |
| CC(=O)Nc1cccnc1C[C@H](N)c1ccccc1-c1noc2ccccc12 [Example 76, (S)—N-(2-{2-Amino-2-[2-(benzo[d]isoxazol-3-yl)phenyl]ethyl}pyridin-3-yl)acetamide hydrochloride] | – | 5.06 |
| Cc1cc(C#N)cnc1C[C@H](N)c1ccccc1-c1noc2ccccc12 [Example 80, (S)-1-[2-(Benzo[d]isoxazol-3-yl)phenyl]-2-(3-methyl-5-cyanopyridin-2-yl)ethan-1-amine] | – | 5.72 |
| Cc1ccc([C@@H](N)Cc2ccccn2)c(-c2noc3ccccc23)c1 [Example 38, (S)-1-[2-(Benzo[d]isoxazol-3-yl)-4-methylphenyl]-2-(pyridine-2-yl)ethan-1-amine hydrochloride] | – | 4.89 |
| CS(=O)(=O)c1nc(C[C@H](N)c2ccccc2-c2noc3ccccc23)ccc1F [Example 7, (S)-1-[2-(Benzo[d]isoxazol-3-yl)phenyl]-2-(5-fluoro-6-methylsulfonylpyridine-2-yl)ethan-1-amine hydrochloride] | – | 5.24 |
| CC(O)c1ccc2c(-c3ccccc3[C@@H](N)Cc3ccccn3)noc2c1 (stereo partly drawn) [Example 35, (S)-1-[2-(6-[1-Hydroxyethyl]benzo[d]isoxazol-3-yl)phenyl]-2-(pyridine-2-yl)ethan-1-amine] | – | 5.05 |
| N[C@@H](Cc1ccccn1)c1ccccc1-c1noc2cccc(Br)c12 [Example 43, (S)-1-[2-(4-Bromobenzo[d]isoxazol-3-yl)phenyl]-2-(pyridine-2-yl)ethan-1-amine hydrochloride] | – | 4.80 |
